Peptide text beside a SMILES is read from it. * marks the point of attachment. Biotin = O=C1N[C@H]2[C@H](CS[C@H]2CCCCC(=O)*)N1
Assays:
Type in all cases: biochemical
ERK2 R133K = biological target: T1, ERK2 R133K (Mus musculus, UniProt P63085, R133K); test: Competitive peptide kinase assay (D-peptide inhibition), ERK2 R133K; conditions: Table S1, 5 μM reporter peptide, 10 nM ERK2, 10 μM ATP, three independent experiments
T1 construct: His6; made in house; host or cells: E. coli BL21(DE3), co-expressed with GST-MEK1ΔN3
Protocol: (§1) We determined relative binding affinities for D-peptides from their potency as competitive inhibitors of WT or mutant ERK2 activity on a D-site-dependent reporter substrate peptide (Table S1, Fig. 3A, S3).
(§2) Competitive peptide kinase assays were performed with a D-site dependent MAPK reporter substrate peptide (AssayQuant Technologies Inc, #AQT0376) as we reported previously ([15]). Briefly, 5 μM of reporter peptide was mixed with various concentrations of D-peptides in reaction buffer (54 mM HEPES [pH 7.4], 1.2 mM DTT, 0.01% Brij-35, 1% glycerol, 0.2 mg/ml BSA, and 10 mM MgCl2). […] Phosphorylation of the reporter peptide was measured by fluorescence (λex 360 nm, λem 485 nm) in 90 s intervals over 21 min in a Spectra M5 plate reader. Rates were calculated from the linear portion of the reaction progress curve, and data were normalized to maximum (samples lacking competitor peptide) and minimum (control reactions lacking kinase) values. Normalized rates were plotted against D-peptide concentration and fitted into a sigmoidal dose-response curve to determine the IC50 values using GraphPad Prism (Version 9.3.0).

ERK2 E322K = biological target: T2, ERK2 E322K (Mus musculus, UniProt P63085, E320K); test: Competitive peptide kinase assay (D-peptide inhibition), ERK2 E322K; conditions: Table S1, 5 μM reporter peptide, 10 nM ERK2, 10 μM ATP, three independent experiments
T2 construct: His6; made in house; host or cells: E. coli BL21(DE3), co-expressed with GST-MEK1ΔN3
Protocol: as §1, §2

ERK2 D319N = biological target: T3, ERK2 D319N (Mus musculus, UniProt P63085, D319N); test: Competitive peptide kinase assay (D-peptide inhibition), ERK2 D319N; conditions: Table S1, 5 μM reporter peptide, 10 nM ERK2, 10 μM ATP, three independent experiments
T3 construct: His6; made in house; host or cells: E. coli BL21(DE3), co-expressed with GST-MEK1ΔN3
Protocol: as §1, §2

ERK2 WT = biological target: T4, ERK2 WT (Mus musculus, UniProt P63085); test: Competitive peptide kinase assay (D-peptide inhibition), ERK2 WT; conditions: Table S1, 5 μM reporter peptide, 10 nM ERK2, 10 μM ATP, three independent experiments
T4 construct: His6; made in house; host or cells: E. coli BL21(DE3), co-expressed with GST-MEK1ΔN3
Protocol: as §1, §2

His6-ERK2 WT = test: Radiolabel kinase assay with competing D-peptide; conditions: 10 μM KMT2C D-peptide, WT without peptide = 100.0; for ELK1 WT phosphorylation, Normalized: 0.5 μM GST-ELK1 WT; for ELK1 WT phosphorylation, Normalized / ELK1 ΔD phosphorylation, Normalized: 10 nM ERK2 WT; for ELK1 ΔD phosphorylation, Normalized: 0.5 μM GST-ELK1 ΔD; for GEF-H1 phosphorylation, Normalized: 0.5 μM His6-GEF-H1, 10 nM ERK2 WT
Text: Based on our structural and mutational analysis, we hypothesized that ERK2 CD site mutants should not bind or efficiently phosphorylate validated ERK2 substrates containing an I/L-x-x-R-R D-site motif. We previously reported that while ISG20 interacts physically with ERK2 in cells, it is not an ERK2 substrate in vitro ([15]). […] We previously reported that disruption of the GEF-H1 docking motif reduced its extent of co-immunoprecipitation with ERK2 ([15]). Accordingly, we investigated whether cancer-associated ERK2 mutants were impaired in phosphorylating GEF-H1. […] The level of phosphorylation by CD site mutants was similar to that of WT ERK2 when assayed in the presence of excess competing D-peptide to block docking interactions.
Radiolabel kinase assays were performed as described previously by incubating 0.5 μM MAPK substrate (His6-GEF-H1, GST-ELK1^WT or GST-ELK1^ΔD), 10 nM His6-ERK2 (WT, R133K, D319N or E320K) and 10 μM inhibitor peptide KMT2C where indicated (biotin-RKRSKPKLKLKIIN-amide, Tufts University Core Facility) in reaction buffer (20 mM HEPES, 10 mM MgCl2, 1 mM DTT, 1% DMSO, 10 μM cold ATP, and 0.038 μCi/μl [γ-^32P] ATP) at 30 °C for 2 min. Reactions were quenched by the addition of 4x SDS-PAGE loading buffer and heated to 95 °C for 5 min before SDS-PAGE fractionation. Gels were stained with Coomassie blue, destained, dried, and exposed to a phosphor screen. Radiolabel incorporation was measured with Molecular Imager FX phosphorimager (Bio-Rad), and ^32P signal density (CNT/mm^2) was quantified using QuantityOne Software (Bio-Rad version 11.0.5). All signals were normalized to the vehicle control condition. Raw quantified data are provided in Dataset S3.

T2 sequence (P63085 whole entry E320K): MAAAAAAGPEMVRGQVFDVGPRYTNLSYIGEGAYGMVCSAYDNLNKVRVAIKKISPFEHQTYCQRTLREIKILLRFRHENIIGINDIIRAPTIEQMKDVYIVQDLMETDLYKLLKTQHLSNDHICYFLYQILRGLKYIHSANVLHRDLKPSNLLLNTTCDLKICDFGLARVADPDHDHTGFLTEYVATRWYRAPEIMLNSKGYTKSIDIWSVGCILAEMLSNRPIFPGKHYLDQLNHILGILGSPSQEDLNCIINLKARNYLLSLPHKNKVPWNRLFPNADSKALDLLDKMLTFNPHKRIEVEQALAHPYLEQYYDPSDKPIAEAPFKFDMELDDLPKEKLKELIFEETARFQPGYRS
T3 sequence (P63085 whole entry D319N): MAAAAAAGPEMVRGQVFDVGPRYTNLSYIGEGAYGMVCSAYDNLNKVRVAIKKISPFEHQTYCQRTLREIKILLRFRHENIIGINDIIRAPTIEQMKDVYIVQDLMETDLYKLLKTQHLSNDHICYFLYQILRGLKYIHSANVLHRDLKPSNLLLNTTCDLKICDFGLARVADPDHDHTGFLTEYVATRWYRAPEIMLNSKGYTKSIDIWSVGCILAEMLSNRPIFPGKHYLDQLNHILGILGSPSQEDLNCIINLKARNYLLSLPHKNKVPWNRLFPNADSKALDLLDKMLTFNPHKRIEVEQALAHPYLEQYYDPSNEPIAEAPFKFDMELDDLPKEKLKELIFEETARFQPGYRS
T4 sequence (P63085 whole entry): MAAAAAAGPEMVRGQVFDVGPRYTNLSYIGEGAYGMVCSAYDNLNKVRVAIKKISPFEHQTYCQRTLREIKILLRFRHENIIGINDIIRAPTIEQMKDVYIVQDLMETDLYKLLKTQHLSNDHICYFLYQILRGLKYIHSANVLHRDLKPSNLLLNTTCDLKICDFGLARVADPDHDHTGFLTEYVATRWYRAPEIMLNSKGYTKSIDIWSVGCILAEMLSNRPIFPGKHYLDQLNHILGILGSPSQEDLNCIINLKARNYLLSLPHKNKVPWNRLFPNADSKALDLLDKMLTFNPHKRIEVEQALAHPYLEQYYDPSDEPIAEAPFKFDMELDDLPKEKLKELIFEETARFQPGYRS
T1 sequence (P63085 whole entry R133K): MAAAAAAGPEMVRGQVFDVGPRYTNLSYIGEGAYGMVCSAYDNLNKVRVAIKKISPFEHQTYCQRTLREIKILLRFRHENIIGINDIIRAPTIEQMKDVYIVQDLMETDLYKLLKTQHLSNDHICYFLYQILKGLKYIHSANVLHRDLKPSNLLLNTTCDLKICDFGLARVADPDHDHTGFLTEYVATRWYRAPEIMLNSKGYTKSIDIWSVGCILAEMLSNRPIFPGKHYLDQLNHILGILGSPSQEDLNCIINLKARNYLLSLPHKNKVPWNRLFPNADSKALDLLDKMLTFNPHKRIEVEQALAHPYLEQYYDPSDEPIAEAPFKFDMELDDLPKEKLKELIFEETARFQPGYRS

Molecule	IC50 (ERK2 R133K) [µM]	IC50 (ERK2 E322K) [µM]	IC50 (ERK2 D319N) [µM]	IC50 (ERK2 WT) [µM]	further results
CC(C)C[C@H](NC(=O)[C@H](CC(C)C)NC(=O)[C@H](CC(C)C)NC(=O)[C@H](CCCNC(=N)N)NC(=O)[C@H](CCCCN)NC(=O)[C@@H]1CCCN1C(=O)[C@H](CCCCN)NC(=O)[C@@H]1CCCN1C(=O)CNC(=O)[C@H](CCCNC(=N)N)NC(=O)[C@H](CCCCN)NC(=O)[C@H](CCCNC(=N)N)NC(=O)[C@H](C)NC(=O)[C@@H](N)Cc1ccc(O)cc1)C(=O)N[C@@H](CCC(N)=O)C(=O)N[C@@H](CCCNC(=N)N)C(=O)O [CBX7] (H-YARKRGPKPKRLLLQR-OH)	5.7	14	9.8	5.1	–
CC[C@H](C)[C@H](NC(=O)[C@@H](NC(=O)[C@H](CCC(=O)O)NC(=O)[C@H](CCSC)NC(=O)[C@H](CCC(N)=O)NC(=O)[C@H](CCCNC(=N)N)NC(=O)[C@H](CCCNC(=N)N)NC(=O)[C@H](CC(N)=O)NC(=O)[C@H](CCCNC(=N)N)NC(=O)[C@H](CC(C)C)NC(=O)[C@H](C)NC(=O)[C@@H](N)Cc1ccc(O)cc1)C(C)C)C(=O)N[C@@H](CO)C(=O)N[C@@H](CC(C)C)C(=O)N[C@@H](CCCNC(=N)N)C(=O)N[C@@H](CC(C)C)C(=O)O [DISC1] (H-YALRNRRQMEVISLRL-OH)	74	110	79	23	–
CC(C)C[C@H](NC(=O)[C@H](CC(=O)O)NC(=O)[C@H](CCCNC(=N)N)NC(=O)[C@@H]1CCCN1C(=O)[C@H](CCCCN)NC(=O)[C@H](CCCNC(=N)N)NC(=O)CNC(=O)[C@H](CCCCN)NC(=O)[C@H](C)NC(=O)[C@@H](N)Cc1ccc(O)cc1)C(=O)N[C@@H](CCC(=O)O)C(=O)N[C@@H](CC(C)C)C(=O)N1CCC[C@H]1C(=O)N[C@@H](CC(C)C)C(=O)N[C@@H](CO)C(=O)N1CCC[C@H]1C(=O)O [ELK1] (H-YAKGRKPRDLELPLSP-OH)	58	43	32	35	–
CC[C@H](C)[C@H](NC(=O)[C@H](CC(C)C)NC(=O)[C@@H]1CCCN1C(=O)[C@H](CCC(=O)O)NC(=O)[C@@H]1CCCN1C(=O)[C@H](CCCNC(=N)N)NC(=O)[C@@H]1CCCN1C(=O)[C@H](CCCNC(=N)N)NC(=O)[C@H](CCC(N)=O)NC(=O)[C@H](CCCCN)NC(=O)[C@@H]1CCCN1C(=O)[C@H](C)NC(=O)[C@@H](N)Cc1ccc(O)cc1)C(=O)N[C@H](C(=O)N1CCC[C@H]1C(=O)N[C@H](C(=O)O)[C@@H](C)O)[C@@H](C)CC [ELMSAN1] (H-YAPKQRPRPEPLIIPT-OH)	27	40	30	24	–
CC(C)C[C@H](NC(=O)CNC(=O)[C@H](CCCNC(=N)N)NC(=O)[C@H](CCCNC(=N)N)NC(=O)[C@H](C)NC(=O)[C@H](CS)NC(=O)[C@H](CC(C)C)NC(=O)[C@H](C)NC(=O)[C@@H](N)Cc1ccc(O)cc1)C(=O)N[C@@H](Cc1ccc(O)cc1)C(=O)N[C@@H](CS)C(=O)N[C@@H](CC(C)C)C(=O)N[C@@H](CO)C(=O)N[C@@H](CC(C)C)C(=O)N[C@@H](CC(=O)O)C(=O)N[C@@H](Cc1c[nH]cn1)C(=O)O [FAAP100]	> 200	> 200	> 200	92	–
CC[C@H](C)[C@H](NC(=O)[C@@H](NC(=O)[C@H](CC(C)C)NC(=O)[C@H](C)NC(=O)[C@@H]1CCCN1C(=O)[C@H](CC(C)C)NC(=O)[C@@H](NC(=O)[C@@H]1CCCN1C(=O)[C@H](CCCCN)NC(=O)[C@H](CCCNC(=N)N)NC(=O)[C@H](CCCNC(=N)N)NC(=O)[C@H](C)NC(=O)[C@H](C)NC(=O)[C@@H](N)Cc1ccc(O)cc1)C(C)C)[C@@H](C)O)C(=O)N[C@@H](CC(N)=O)C(=O)N1CCC[C@H]1C(=O)O [MAP2K2] (H-YAARRKPVLPALTINP-OH)	29	41	23	23	–
CC(C)C[C@H](NC(=O)CNC(=O)[C@H](CCCCN)NC(=O)[C@H](Cc1ccccc1)NC(=O)[C@H](CC(N)=O)NC(=O)[C@H](CCCCN)NC(=O)[C@H](Cc1c[nH]c2ccccc12)NC(=O)[C@H](CCCCN)NC(=O)[C@@H]1CCCN1C(=O)[C@H](CO)NC(=O)[C@H](C)NC(=O)[C@@H](N)Cc1ccc(O)cc1)C(=O)N[C@@H](CCCCN)C(=O)N[C@@H](CC(C)C)C(=O)N[C@@H](CC(C)C)C(=O)N[C@@H](CS)C(=O)O [MLXIPL] (H-YASPKWKNFKGLKLLC-OH)	23	28	26	18	–
CC(C)C[C@H](NC(=O)[C@@H](NC(=O)[C@H](CC(C)C)NC(=O)[C@H](CO)NC(=O)[C@@H](NC(=O)[C@H](CC(N)=O)NC(=O)[C@H](CO)NC(=O)CNC(=O)[C@H](CCCNC(=N)N)NC(=O)[C@H](CCCNC(=N)N)NC(=O)[C@H](CCC(=O)O)NC(=O)[C@H](CCC(N)=O)NC(=O)[C@H](CC(C)C)NC(=O)CNC(=O)[C@H](C)NC(=O)[C@@H](N)Cc1ccc(O)cc1)C(C)C)[C@@H](C)O)C(=O)O [PTPN5] (H-YAGLQERRGSNVSLTL-OH)	760	600	600	42	–
CC[C@H](C)[C@H](NC(=O)[C@H](C)NC(=O)[C@@H](N)Cc1ccc(O)cc1)C(=O)N[C@@H](CCCCN)C(=O)NCC(=O)N[C@@H](CCCCN)C(=O)N[C@@H](CCCNC(=N)N)C(=O)N[C@@H](CCCNC(=N)N)C(=O)N[C@@H](CCCNC(=N)N)C(=O)N[C@@H](CCCCN)C(=O)N[C@@H](CCCCN)C(=O)N[C@@H](CC(C)C)C(=O)N[C@H](C(=O)N[C@@H](CC(C)C)C(=O)N[C@@H](C)C(=O)N[C@@H](CCCCN)C(=O)O)[C@@H](C)CC [ZBED6] (H-YAIKGKRRRKKLILAK-OH)	6.2	56	23	6.8	–
Biotin-RKRSKPKLKLKIIN-NH2 [D-pep]	–	–	–	–	ELK1 WT phosphorylation, Normalized (His6-ERK2 WT; Replicate 1): 66.2; ELK1 WT phosphorylation, Normalized (His6-ERK2 WT; Replicate 2): 52.7; ELK1 WT phosphorylation, Normalized (His6-ERK2 WT; Replicate 3): 42.6; ELK1 ΔD phosphorylation, Normalized (His6-ERK2 WT; Replicate 1): 107.4; ELK1 ΔD phosphorylation, Normalized (His6-ERK2 WT; Replicate 2): 80.5; ELK1 ΔD phosphorylation, Normalized (His6-ERK2 WT; Replicate 3): 85.4; GEF-H1 phosphorylation, Normalized (His6-ERK2 WT; 30 °C 2 min, Replicate 1): 23.5; GEF-H1 phosphorylation, Normalized (His6-ERK2 WT; Replicate 2): 37.1; GEF-H1 phosphorylation, Normalized (His6-ERK2 WT; Replicate 3): 54.2

Source: paper PMC11982978, “Cancer hotspot mutations rewire ERK2 specificity by selective exclusion of docking interactions” (The Journal of Biological Chemistry, 2025)
